Laboratory results: patent US4906753A, “Preparation of 2,6-disubstituted-5-cyano-4-pyrimidinyloxyacetic acid aldose reductase inhibitors” (American Home Products Corporation, priority 1988, dated 1990)
Where two headings read alike, the source gives them in different places.

Legend:
aldose reductase [1] = biological target: T1, aldose reductase (Bos taurus, UniProt P16116); test: in vitro aldose reductase inhibition (modified Hayman and Kinoshita procedure); format: biochemical, bovine (lens); settings: for inhibition at 10 µM: read-out: % Inhibition IN VITRO 10^-5 M; for inhibition at 1 µM: 10^-6 M; for inhibition at 0.1 µM: 10^-7 M
T1 construct: preparation of the enzyme from bovine lens; from tissue; host or cells: bovine lens
Description: In the present case the procedure of Hayman and Kinoshita was modified in that the final chromatography step was omitted in the preparation of the enzyme from bovine lens.

galactosemic rats = test: lowering of dulcitol (galactitol) accumulation in tissues of galactosemic rats; format: in vivo, rat (male Sprague-Dawley); settings: for % Lowering dulcitol accumulation IN VIVO, D: Table 1, diaphragm
Protocol: Such experiments are exemplified hereinbelow after the listing of the following general comments pertaining to these experiments:
Male Sprague-Dawley rats, weighing approximately 90 grams were separated into groups of equal average body weight, with six animals per group. The animals were housed in cages of six animals each and maintained on 12 hour night/12 hour day cycles. Except as otherwise noted, the animals were given food and water ad libitum.
On day 1, the galactosemic control group and all drug-treated groups were given access to 20% galactose chow (Bio-Serv, Frenchtown, NJ). Animals in the control group were given access to 20% glucose chow (Bio-Serv). Test compounds were administered either in the diet or by gavage as a suspension in 2% Tween 80 in saline. In experiments, in which gavage dosing was used, the animals were administered the test compound daily at approximately the same hour each day. Food intake and body weight were determined twice during the course of the experiment. In cases in which the compound was administered in the diet, the average dose was calculated on the basis of the actual average food intake during the experiment.
On the morning of day 5, all animals were fasted; beginning two hours later the animals were decapitated and the lenses, sciatic nerves, and a 50-100 mg portion of the diaphragm were removed, weighed, and frozen in porcelain plates on dry ice.
Only two minor reagent changes were made: (a) the rinsing mixture was an aqueous 5% (w/v) trichloroacetic acid solution and (b) the stock solution was prepared by dissolving 25 mg of dulcitol in 100 mL of an aqueous trichloroacetic acid solution. [N.B.: For each experiment the average value found in the tissue from rats fed the glucose diet was subtracted from the individual values found in the corresponding tissue in galactose-fed rats to obtain the amount of polyol accumulated.]
The figures under L, N and D represent the percentage decrease of galactitol accumulation in the tissues of the lens, sciatic nerve, and diaphragm, respectively, for treated rats as compared to untreated rats.

aldose reductase [2] = settings: reported in U.S. Pat. No. 4,568,693; cited from earlier work

SMILES | inhibition at 10 µM (aldose reductase [1]; Table 1, 10^-5 M) | inhibition at 1 µM (aldose reductase [1]; Table 1) | inhibition at 0.1 µM (aldose reductase [1]; Table 1) | also measured
CSc1nc(Cc2ccccc2)nc(OCC(=O)O)c1C#N | 91% | 90% | 78% | 
Cc1nc(-c2ccccc2)nc(OCC(=O)O)c1C#N |  |  |  | inhibition at 10 µM (aldose reductase [1]; Table 2, 10^-5 M): 92%; inhibition at 1 µM (aldose reductase [1]; Table 2): 88%; inhibition at 0.1 µM (aldose reductase [1]; Table 2): 79%
CC(C)(C)c1nc(OCC(=O)O)c(C#N)c(SCC2CCCCC2)n1 [Example 1 (Table 1), [[5-Cyano-6-[(cyclohexylmethyl)thio]-2-(1,1-dimethylethyl)-4-pyrimidinyl]oxy]acetic Acid] | 97% | 96% | 88% | 
N#Cc1c(Cc2cccc3ccccc23)nc(-c2cccc3c(Br)cccc23)nc1OCC(=O)O [Example 1 (Table 2), [[2-(5-Bromo-1-naphthalenyl)-5-cyano-6-[(1-naphthalenyl)methyl]-4-pyrimidinyl]oxy]acetic Acid] |  |  |  | inhibition at 10 µM (aldose reductase [1]; Table 2, 10^-5 M): 90%; inhibition at 1 µM (aldose reductase [1]; Table 2): 85%; inhibition at 0.1 µM (aldose reductase [1]; Table 2): 46%
CC(C)(C)c1nc(OCC(=O)O)c(C#N)c(SCc2ccc(Br)cc2F)n1 [Example 2 (Table 1)] |  | 93% | 93% | inhibition at 10 µM (aldose reductase [1]): 98%; % Lowering dulcitol accumulation IN VIVO, D (galactosemic rats; 99 mg/kg): 47%
CSc1nc(C(C)(C)C)nc(OCC(=O)O)c1C#N [Example 3 (Table 1)] | 89% | 88% | 82% | % Lowering dulcitol accumulation IN VIVO, D (galactosemic rats; 83 mg/kg): 32%
Cc1nc(-c2cccc3ccccc23)nc(OCC(=O)O)c1C#N [Example 3 (Table 2)] |  |  |  | inhibition at 10 µM (aldose reductase [1]; Table 2, 10^-5 M): 93%; inhibition at 1 µM (aldose reductase [1]; Table 2): 85%; inhibition at 0.1 µM (aldose reductase [1]; Table 2): 46%
CSc1nc(CC(C)(C)C)nc(OCC(=O)O)c1C#N [Example 4 (Table 1)] | 95% | 96% | 85% | % Lowering dulcitol accumulation IN VIVO, D (galactosemic rats; 98 mg/kg): 22%
N#Cc1c(OCC(=O)O)nc(-c2ccccc2)nc1-c1ccccc1 [Example 4 (Table 2)] |  |  |  | inhibition at 0.1 µM (aldose reductase [1]; Table 2): 85%; % Lowering dulcitol accumulation IN VIVO, L (galactosemic rats; Table 2, lens, 100 mg/kg): 17%
CSc1nc(C(C)C)nc(OCC(=O)O)c1C#N [Example 5 (Table 1)] |  | 97% | 88% | inhibition at 10 µM (aldose reductase [1]): 98%
N#Cc1c(OCC(=O)O)nc(-c2cccc3ccccc23)nc1-c1ccccc1 [Example 5 (Table 2)] |  |  |  | inhibition at 10 µM (aldose reductase [1]; Table 2, 10^-5 M): 79%; inhibition at 1 µM (aldose reductase [1]; Table 2): 76%; inhibition at 0.1 µM (aldose reductase [1]; Table 2): 53%
CC(C)c1nc(-c2cccc3c(Br)cccc23)nc(OCC(=O)O)c1C#N [Example 6 (Table 2)] |  |  |  | inhibition at 10 µM (aldose reductase [1]; Table 2, 10^-5 M): 94%; inhibition at 1 µM (aldose reductase [1]; Table 2): 90%; inhibition at 0.1 µM (aldose reductase [1]; Table 2): 53%
CCCc1nc(OCC(=O)O)c(C#N)c(SC)n1 [Example 7 (Table 1)] | 92% | 89% | 74% | 
N#Cc1c(OCC(=O)O)nc(C2CCCCC2)nc1SCc1ccccc1 [Example 8 (Table 1)] | 95% | 91% | 73% | 
CSc1nc(-c2ccc(Br)cc2)nc(OCC(=O)O)c1C#N [Example 9 (Table 1)] | 95% | 93% | 82% | % Lowering dulcitol accumulation IN VIVO, D (galactosemic rats; 114 mg/kg): 27%
CC(C)(C)c1nc(OCC(=O)O)c(C#N)c(SCc2ccc(Br)cc2)n1 [Example 10 (Table 1)] | 95% | 95% | 95% | % Lowering dulcitol accumulation IN VIVO, D (galactosemic rats; 135 mg/kg): 58%
CCCCCCSc1nc(C(C)(C)C)nc(OCC(=O)O)c1C#N [Example 11 (Table 1)] |  |  |  | % Lowering dulcitol accumulation IN VIVO, D (galactosemic rats; 112 mg/kg): 60%
CC(C)Sc1nc(C(C)(C)C)nc(OCC(=O)O)c1C#N [Example 12 (Table 1)] | 92% | 91% | 89% | % Lowering dulcitol accumulation IN VIVO, D (galactosemic rats; 82 mg/kg): 19%
CSc1nc(C)nc(OCC(=O)O)c1C#N [Example 13 (Table 1)] | 90% | 84% | 55% | 
CSc1nc(-c2ccccc2)nc(OCC(=O)O)c1C#N [Example 14 (Table 1)] | 92% | 87% | 75% | % Lowering dulcitol accumulation IN VIVO, D (galactosemic rats; 96 mg/kg): 55%
CSc1nc(C2CCCCC2)nc(OCC(=O)O)c1C#N [Example 15 (Table 1)] | 90% | 90% | 74% | 
CC(C)(C)c1nc(OCC(=O)O)c(C#N)c(SCc2ccccc2)n1 [Example 16 (Table 1)] | 86% | 85% | 82% | % Lowering dulcitol accumulation IN VIVO, D (galactosemic rats; 97 mg/kg): 67%
CSc1nc(-c2cccs2)nc(OCC(=O)O)c1C#N [Example 17 (Table 1)] |  | 97% | 92% | inhibition at 10 µM (aldose reductase [1]): 98%
COc1ccc2c(C(=S)N(C)CC(=O)O)cccc2c1C(F)(F)F [tolrestat, N-[[6-methoxy-5-(trifluoromethyl)-1-naphthalenyl]-thioxomethyl]-N-methylglycine, reference compound] |  |  |  | inhibitor of aldose reductase (aldose reductase [2]): effective inhibitor of aldose reductase
